Read-outs that look alike come from different tables or passages of the source.
Columns and labels:
[1] = tested on: mechanical allodynia in STZ-induced DPN rats; test: Treatment of neuropathic pain in STZ-induced rat model of DPN, paw withdrawal threshold (von Frey filaments); type: in vivo, Sprague-Dawley rats; conditions: for effect on PWT compared to vehicle (treatment study): established DPN, result in words
Protocol: DPN was induced via chemically-induced increases in blood glucose in rats, using streptozotocin (STZ). This is a well-established model for DPN (see Morrow, Current Protocols in Neuroscience (2004); 29(1): 1-11), in which the STZ, an antibiotic extract from Streptomyces acromogenes, selectively damages the β cells of the pancreas.
Sprague-Dawley rats were fasted for 4-6 hours before being injected intraperitoneally with 45 mg/kg STZ. This was performed for all experimental groups, except the naïve group. In order to prevent hypoglycaemic death, rats received 10% sucrose water as the sole water source for the first 48 hours after injection. In order to ensure only those rats considered diabetic (i.e., having non-fasting plasma glucose levels of >250 mg/dL) were included in the study, blood glucose was measured at 72 hours after the STZ injection.
This delay between STZ injection and treatment allows the establishment of chronic pain (allodynia) associated with peripheral and central sensitisation. PS (as an 8% hydrogel) or vehicle control were administered topically to both hind paws of the rats 3 times a day for 3 weeks starting at week 4 after STZ injection. […] 5% lidocaine cream (a positive control) was applied only once to both hind paws of the rats 30 minutes before measurement of PWT.
The rats were split into 8 study groups, with those in the experimental groups (1-4) having an average body weight of about 225 g, and those in the control groups (5-8) having an average body weight of about 335 g, as follows: • 1. Group 1: naïve rats (n=5) • 2. Group 2: STZ only (n=6) • 3. Group 3: STZ plus vehicle (n=6) • 4. Group 4: STZ plus PS (8% hydrogel) (n=7) • 5. Group 5: STZ plus oral vehicle (n=8) • 6. […] Group 7: STZ plus 5% lidocaine cream (n=8) • 8.
In order to determine the outcome of the treatment, mechanical allodynia was measured using the well-established method of von Frey filaments. In particular, a simplified up-down method for estimating paw withdrawal threshold (PWT) using von Frey filaments was used (as described in Bonin et al., Molecular Pain (2014); 10(26):1-10)). The results of the PWT test are expressed as force applied (gm).

[2] = tested on: mechanical allodynia in STZ-induced DPN rats; test: Prevention of neuropathic pain in STZ-induced rat model of DPN, paw withdrawal threshold (von Frey filaments); type: in vivo; conditions: prevention protocol; for von Frey, gm mean ± SEM (PWT): PS 8% hydrogel or sulindac 0.7% hydrogel topical 3 times a day from day -2 to day 28, lidocaine 5% cream once 30 min before PWT, PWT on day 28; for effect on PWT compared to vehicle (prevention study): day 28, result in words
From the text: DPN was induced via chemically-induced increases in blood glucose in rats, using streptozotocin (STZ).
The animal model corresponds to that used for Example 1, but using a prevention protocol. As in Example 1, the outcome measure, determining the effect of the treatment on the prevention of mechanical allodynia, was the PWT test, using von Frey filaments. The measurements were taken at day −3, before treatment or induction of neuropathic pain associated with DPN, and again at the end of the study period (day 28).
The rats were randomised into treatment groups as follows, all having an average body weight of about 225 g. • 1. Group 1: naïve rats (n=6) • 2. Group 2: STZ only (n=8) • 3. Group 3: STZ plus vehicle (n=8) • 4. Group 4: STZ plus PS 8% (n=8) • 5. […] Group 6: STZ plus lidocaine cream 5% (n=8)
Each treatment group was subjected to a PWT assessment at day −3 in order to determine the baseline of mechanical allodynia. […] For those rats in the lidocaine treatment group, lidocaine cream was applied only once to both hind paws of the rats 30 min before the final PWT measurement on day 28. On day 0, neuropathic pain associated with DPN was induced with the administration of STZ, and the blood glucose was checked on day 3. Four weeks after the administration of STZ, to provide sufficient time to allow the neuropathic pain associated with DPN (manifested as mechanical allodynia) to develop (see the STZ only group in FIG. 5), the rats were subjected to the paw withdrawal threshold test.

[3] = Pharmacokinetics and biodistribution of PS and its metabolites after topical administration to hind paws; conditions: for AUC0-24h of PS / Tmax of PS / T1/2 of PS / Cmax: 50 μl per hind paw; for Cmax: read-out: Cmax of PS, mean ± SEM
Protocol: PS 8% ointment was applied topically to each hind paw (50 μl per paw) with gentle rubbing. At 0.5, 1, 3, 5, 12, 18, and 24 h, mice (n=4-5 mice/time point) were euthanized with CO2 inhalation. Blood was drawn immediately after death. Tissues, including paw skin, paw muscle, leg muscle, the sciatic nerve and lumbar DRG bilaterally were dissected quickly, immediately frozen in liquid nitrogen and stored at −80° C. until analyzed.
Following addition of acetonitrile (twice the volume of the homogenate), the mixture was sonicated for 10 min, centrifuged at 13,200 rpm for 15 min, and analyzed by HPLC, as reported (Wen et al., 2019).
Since the metabolism and PK/biodistribution of PS vary depending on its route of administration, we studied both in normal mice in which PS was administered topically to their hind paws, with particular attention to the sciatic nerve and the dorsal root ganglia (DRG) that are affected in DPN.

[4] = treatment protocol from week 4, sulindac 0.7% hydrogel topical 3 times a day for 1 week (PWT week 5), lidocaine 5% cream once 30 min before PWT, pregabalin 10 mg/kg oral once 1 h before PWT
[5] = dorsal root ganglia (DRG), normal mice, PS 8% ointment topical
[6] = leg muscle, normal mice, PS 8% ointment topical
[7] = paw muscle, normal mice, PS 8% ointment topical
[8] = paw skin, normal mice, PS 8% ointment topical
[9] = sciatic nerve (SN), normal mice, PS 8% ointment topical

CC(C)C[C@H](CN)CC(=O)O [pregabalin]
effect on PWT compared to vehicle (treatment study) [1]: significant increases in PWT compared to vehicle

CC1=C(CC(=O)O)c2cc(F)ccc2/C1=C\c1ccc([S+](C)[O-])cc1 (stereo not drawn) [sulindac]
effect on PWT compared to vehicle (treatment study) [1]: failed to suppress the reduced PWT caused by STZ
PWT, gm Mean ± SEM [1, 4]: 23.2 ± 2.6 gm
von Frey, gm mean ± SEM (PWT) [2]: 27.7 ± 1.4 gm
effect on PWT compared to vehicle (prevention study) [2]: no significant effect on PWT compared to the vehicle

CC1=C(CC(=O)O)c2cc(F)ccc2/C1=C\c1ccc(S(C)(=O)=O)cc1 [sulindac sulfone]
detection as metabolite of PS ([3]; mouse tissues and blood after PS 8% ointment topical, HPLC, limit of quantitation 0.05 μM): detected

CCN(CC)CC(=O)Nc1c(C)cccc1C [lidocaine]
effect on PWT compared to vehicle (treatment study) [1]: significant increases in PWT compared to vehicle
PWT, gm Mean ± SEM [1, 4]: 26.0 ± 1.8 gm
von Frey, gm mean ± SEM (PWT) [2]: 34.3 ± 1.6 gm
effect on PWT compared to vehicle (prevention study) [2]: significantly increased the PWT compared to vehicle

phosphosulindac [PS]
PS in the systemic circulation ([3]; blood, normal mice, PS 8% ointment topical, limit of quantitation 0.1 μM): no PS was detected
AUC0-24h of PS [3, 5]: 4.5 µM·h
Tmax of PS [3, 5]: 18 h
AUC0-24h of PS [3, 6]: 171.6 µM·h
T1/2 of PS [3, 6]: 20.6 h
Tmax of PS [3, 6]: 0.5 h
Tmax of PS in all tissues with the exception of DRG ([3]; normal mice, PS 8% ointment topical): 0.5 h
AUC0-24h of PS [3, 7]: 411.2 µM·h
T1/2 of PS [3, 7]: 11.4 h
Tmax of PS [3, 7]: 0.5 h
AUC0-24h of PS [3, 8]: 1,609.8 μM · h
T1/2 of PS [3, 8]: 16.1 h
Tmax of PS [3, 8]: 0.5 h
t1/2 of PS in the skin and the muscles ([3]; range over paw skin, paw muscle, leg muscle, normal mice, PS 8% ointment topical): 11.4 to 20.6 h
Cmax [3, 5]: 0.3 ± 0.1 µM
Cmax [3, 6]: 35 ± 3.6 µM
Cmax [3, 7]: 102 ± 4.6 µM
Cmax [3, 8]: 195 ± 5.3 µM
Cmax [3, 9]: 0.9 ± 0.1 µM
AUC0-24h of PS [3, 9]: 12.0 µM·h
T1/2 of PS [3, 9]: 57.4 h
Tmax of PS [3, 9]: 0.5 h
effect on PWT compared to vehicle (treatment study) [1]: significant increase in PWT compared to vehicle and STZ
PWT, gm Mean ± SEM ([1]; treatment protocol, PS 8% hydrogel topically to both hind paws 3 times a day for 3 weeks from week 4 after STZ, PWT at week 7, 30 min after last treatment): 22.5 ± 2.20 gm
von Frey, gm mean ± SEM (PWT) [2]: 33.1 ± 1.6 gm
effect on PWT compared to vehicle (prevention study) [2]: significant increase in PWT compared to vehicle

— patent US12295963B2, “Treating pain associated with diabetic peripheral neuropathy” (MEDICON PHARMACEUTICALS, INC., priority 2021, dated 2025)
